In ChEMBL document CHEMBL5215006, “Antitumor Activity of Piceamycin by Upregulation of N-Myc Downstream-Regulated Gene 1 in Human Colorectal Cancer Cells” (J Nat Prod, 2022):
Activity calls are given as the source filed them. No cut-off for these calls is given here.

Experiments:
HCT-116 [1] = assay: Antiproliferative activity against human HCT-116 cells assessed as cell growth inhibition incubated for 72 hrs by SRB assay; type: functional, cell-based; details: HCT-116, 72 h
HCT-116 [2] = assay: Antitumor activity against human HCT-116 cells assessed as upregulation of NDRG1 protein expression at 0.075 to 0.3 uM incubated for 24 hrs by immunoblotting assay; type: functional, cell-based; details: dose 0.075-0.3 µM, DDE = dose-dependent effect
SW480 [3] = assay: Antitumor activity against human SW480 cells assessed as upregulation of NDRG1 protein expression at 0.35 to 1.4 uM incubated for 24 hrs by immunoblotting assay; type: functional, cell-based; details: dose 0.35-1.4 µM, DDE = dose-dependent effect
SW480 [4] = assay: Antitumor activity against human SW480 cells assessed as upregulation of NDRG1 gene expression at 0.35 to 1.4 uM incubated for 24 hrs by RT-PCR method; type: functional, cell-based; details: dose 0.35-1.4 µM, DDE = dose-dependent effect
HCT-116 [5] = assay: Cell cycle arrest in human HCT-116 cells assessed as accumulation at G0/G1 phase at 0.075 uM incubated for 24 hrs by RNaseA/propidium iodide staining based flow cytometry (reference value: 48.44 %); type: functional
HCT-116 [6] = assay: Cell cycle arrest in human HCT-116 cells assessed as accumulation at G0/G1 phase at 0.3 uM incubated for 24 hrs by RNaseA/propidium iodide staining based flow cytometry (reference value: 48.44 %); type: functional
HCT-116 [7] = assay: Cell cycle arrest in human HCT-116 cells assessed as accumulation at S phase at 0.3 uM incubated for 24 hrs by RNaseA/propidium iodide staining based flow cytometry (reference value: 19.94 %); type: functional
SW480 [8] = assay: Cell cycle arrest in human SW480 cells assessed as accumulation at S phase at 0.7 uM incubated for 24 hrs by RNaseA/propidium iodide staining based flow cytometry (reference value: 16.7 %); type: functional
SW480 [9] = assay: Cell cycle arrest in human SW480 cells assessed as accumulation at G2/M phase at 0.7 uM incubated for 24 hrs by RNaseA/propidium iodide staining based flow cytometry (reference value: 24.74 %); type: functional
SW480 [10] = assay: Cell cycle arrest in human SW480 cells assessed as downregulation of CDK4 protein expression at 0.35 to 1.4 uM incubated for 24 hrs by immunoblotting assay; type: functional, cell-based; details: dose 0.35-1.4 µM
HCT-116 [11] = assay: Induction of apoptosis in human HCT-116 cells assessed as downregulation of survivin expression at 0.3 uM measured at 12 to 48 hrs by immunoblotting assay; type: functional, cell-based; details: time 12-48 hrs, TDE = time-dependent effect
SW480 [12] = assay: Induction of apoptosis in human SW480 cells assessed as downregulation of survivin expression at 1.4 uM measured at 12 to 48 hrs by immunoblotting assay; type: functional, cell-based; details: time 12-48 hrs, TDE = time-dependent effect
HCT-116 [13] = assay: Induction of apoptosis in human HCT-116 cells assessed as late apoptotic cells at 0.075 uM incubated for 48 hrs by Annexin V-FITC/PI staining based flow cytometry analysis (Rvb= 3.18%); type: functional
HCT-116 [14] = assay: Induction of apoptosis in human HCT-116 cells assessed as necrotic cells at 0.075 uM incubated for 48 hrs by Annexin V-FITC/PI staining based flow cytometry analysis (Rvb= 0.13%); type: functional
HCT-116 [15] = assay: Induction of apoptosis in human HCT-116 cells assessed as late apoptotic cells at 0.15 uM incubated for 48 hrs by Annexin V-FITC/PI staining based flow cytometry analysis (Rvb= 3.18%); type: functional
SW480 [16] = assay: Induction of apoptosis in human SW480 cells assessed as early apoptotic cells at 0.35 uM incubated for 48 hrs by Annexin V-FITC/PI staining based flow cytometry analysis (Rvb= 2.07%); type: functional
HCT-116 [17] = assay: Upregulation of cyclin-D1 protein expression in human HCT-116 cells with NDRG1 knockdown at 0.3 uM incubated for 24 hrs by immunoblotting assay; type: functional, cell-based
SW480 [18] = assay: Induction of apoptosis in human SW480 cells assessed as viable cells at 0.7 uM incubated for 48 hrs by Annexin V-FITC/PI staining based flow cytometry analysis (Rvb= 92.6%); type: functional; details: read-out: Activity
SW480 [19] = assay: Induction of apoptosis in human SW480 cells assessed as late apoptotic cells at 0.7 uM incubated for 48 hrs by Annexin V-FITC/PI staining based flow cytometry analysis (Rvb= 5.26%); type: functional
SW480 [20] = assay: Induction of apoptosis in human SW480 cells assessed as necrotic cells at 1.4 uM incubated for 48 hrs by Annexin V-FITC/PI staining based flow cytometry analysis (Rvb= 0.07%); type: functional
SW480 [21] = assay: Inhibition of cell migration in human SW480 cells at 0.35 to 1.4 uM incubated for 24 hrs by wound-healing assay; type: functional, cell-based; details: dose 0.35-1.4 µM, DDE = dose-dependent effect
HCT-116 [22] = assay: Anti-migratory activity against human HCT-116 cells assessed as upregulation of E-cadherin protein expression at 0.075 to 0.3 uM incubated for 24 hrs by immunoblotting assay; type: functional, cell-based; details: dose 0.075-0.3 µM
SW480 [23] = assay: Anti-migratory activity against human SW480 cells assessed as downregulation of Snail protein expression at 0.35 to 1.4 uM incubated for 24 hrs by immunoblotting assay; type: functional, cell-based; details: dose 0.35-1.4 µM
HCT-116 [24] = assay: Anti-migratory activity against human HCT-116 cells assessed as downregulation of Snail gene expression at 0.075 to 0.3 uM incubated for 24 hrs by RT-PCR assay; type: functional, cell-based; details: dose 0.075-0.3 µM
SW480 [25] = assay: Anti-migratory activity against human SW480 cells assessed as upregulation of E-cadherin gene expression at 0.35 to 1.4 uM incubated for 24 hrs by RT-PCR assay; type: functional, cell-based; details: dose 0.35-1.4 µM
HCT-116 [26] = assay: Anti-migratory activity against highly liver metastatic human HCT-116 cells assessed as reduction in migration to 0.075 to 0.3 uM incubated for 24 hrs by wound healing assay; type: functional, cell-based; details: dose 0.075-0.3 µM, DDE = dose-dependent effect
HCT-116 [27] = assay: Antimigratory activity against highly liver metastatic human HCT-116 cells assessed as downregulation of Snail protein expression at 0.075 to 0.3 uM incubated for 24 hrs by immunoblotting assay; type: functional, cell-based; details: dose 0.075-0.3 µM
HCT-116 [28] = assay: Downregulation of cleaved caspase 8 protein expression in human HCT-116 cells with NDRG1 knockdown at 0.3 uM incubated for 24 hrs by immunoblotting assay; type: functional, cell-based
HCT-116 [29] = assay: Downregulation of c-Myc protein expression in human HCT-116 cells at 0.3 uM incubated for 24 hrs by immunoblotting assay; type: functional, cell-based
HCT-116 [30] = assay: Antitumor activity against human HCT-116 cells assessed as decrease in c-Myc expression at 0.075 to 0.3 uM incubated for 24 hrs by immunoblotting assay; type: functional, cell-based; details: dose 0.075-0.3 µM
HCT-116 [31] = assay: Antitumor activity against human HCT-116 cells xenografted Balb/c mouse assessed as reduction in tumor growth at 1 mg/kg,ip administrated for 18 days by 3 times per week; type: functional; parameters: scale not given: the % may be the effect or the level left; details: time 18 day
[32] = Toxicity in Balb/c mouse xenografted with human HCT-116 cells assessed as body weight change at 3 mg/kg,ip administrated for 18 days by 3 times per week; type: organism-based; details: in vivo, 432 h, time 18 day
HCT-116 [33] = assay: Antitumor activity against human HCT-116 cells xenografted Balb/c mouse assessed as increase in NDRG1 protein expression at 1 mg/kg,ip administrated for 18 days by 3 times per week by immunoblotting assay; type: functional, organism-based; details: time 18.0 day
HCT-116 [34] = assay: Antitumor activity against human HCT-116 cells xenografted Balb/c mouse assessed as decrease in Ki67 protein expression at 1 mg/kg,ip administrated for 18 days by 3 times per week by immunoblotting assay; type: functional, organism-based; details: time 18.0 day

C[C@@H]1\C=C/C=C/C=C\C=C\C=C\C(=O)C2=C(O)C(=O)C[C@@]2(C)/C=C/C=C\C=C/C(=O)NC1
IC50 (HCT-116 [1]): 140 nM
Activity (HCT-116 [2]): Dde
Activity (SW480 [3]): Dde
Activity (SW480 [4]): Dde
Activity (HCT-116 [5]): 48.48%
Activity (HCT-116 [6]): 62.85%
Activity (HCT-116 [7]): 10.04%
Activity (SW480 [8]): 15.28%
Activity (SW480 [9]): 17.02%
Activity (SW480 [10]): Active
Activity (HCT-116 [11]): Tde
Activity (SW480 [12]): Tde
Activity (HCT-116 [13]): 6.71%
Activity (HCT-116 [14]): 0.16%
Activity (HCT-116 [15]): 9.22%
Activity (SW480 [16]): 2.62%
Activity (HCT-116 [17]): Active
viability at 0.7 µM (SW480 [18]): 69.8%
Activity (SW480 [19]): 17.78%
Activity (SW480 [20]): 0.19%
inhibition (SW480 [21]): Dde
Activity (HCT-116 [22]): Active
Activity (SW480 [23]): Active
Activity (HCT-116 [24]): Active
Activity (SW480 [25]): Active
Activity (HCT-116 [26]): Dde
Activity (HCT-116 [27]): Active
Activity (HCT-116 [28]): Active
Activity (HCT-116 [29]): Active
Activity (HCT-116 [30]): Active
Activity (HCT-116 [31]): 67%
Activity [32]: Non-Toxic
Activity (HCT-116 [33]): Active
Activity (HCT-116 [34]): Active
